Results published in US11072628B2, “Nucleoside analogues for the treatment of parasitic infections” (UNIVERSITEIT GENT, priority 2017, dated 2021).
Where two headings read alike, the source gives them in different places.

Experiments:
[1] = Cytotoxicity against MRC-5 fibroblasts; details: human, MRC-5 fibroblasts, MRC-5 EC50, Table 2; cytotoxicity
Experimental: (§1) Cytotoxicity was assayed against MRC-5 fibroblasts. Results are depicted in Tables 4 and 5.

[2] = test system: T. cruzi Tulahuen CL2 β galactosidase strain; assay: T. cruzi Tulahuen CL2 β galactosidase strain on MRC-5SV2 cells (CPRG); type: cell-based, Trypanosoma cruzi
Experimental: All cultures and assays were conducted at 37° C./5% CO2. […] The results were expressed as % reduction in parasite burdens compared to control wells from which an EC50 was calculated.

T. brucei Squib 427 = assay: In vitro drug susceptibility, T. brucei Squib 427 (resazurin); type: cell-based, Trypanosoma brucei brucei
Experimental: (§2) All trypanosome strains were cultured in the standard HMI-9 medium supplemented with 10% fetal bovine serum (FBS) at 37° C. in a 5% CO2 atmosphere.

[3] = test system: T. b. rhodesiense STIB-900; assay: In vitro drug susceptibility, T. b. rhodesiense STIB-900 (resazurin); type: cell-based, Trypanosoma brucei rhodesiense
Experimental: as §2

MRC-5 fibroblasts = assay: in vitro
Experimental: as §1

[4] = Trypanosoma cruzi, TULAHUEN, MRC-5 SV2, Table 2, average of 2-3 independent replicates
[5] = Table 1, average of 2-4 independent determinations, read-out: T. brucei brucei EC50
[6] = Table 1, average of 2-4 independent determinations, read-out: T. brucei rhod. EC50
[7] = Table 2, average of 2-3 independent replicates
[8] = Table 4, average of 2-6 independent determinations, read-out: T.b. brucei EC50
[9] = Table 4, average of 2-6 independent determinations, read-out: T.b. rhod. EC50
[10] = Table 5, average of 2-4 independent replicates

| Compound | EC50 [1] [µM] | EC50 [2, 4] [µM] | melting point [°C] | EC50 (T. brucei Squib 427; [5]) [µM] | EC50 [3, 6] [µM] | EC50 (MRC-5 fibroblasts) [µM] | EC50 [2, 7] [µM] | EC50 [2] [µM] | EC50 (T. brucei Squib 427; [8]) [µM] | EC50 [3, 9] [µM] | EC50 [2, 10] [µM] |
| --- | --- | --- | --- | --- | --- | --- | --- | --- | --- | --- | --- |
| Nc1ncnc2c1c(-c1ccc(F)c(F)c1)cn2[C@@H]1O[C@H](CO)C[C@H]1O [FH10682, 4-amino-5-(3,4-difluorophenyl)-N7-(3′-deoxy-β-D-ribofuranosyl)-pyrrolo[2,3-d]pyrimidine] | > 64 | 0.33 | 218 |  |  |  |  |  |  |  |  |
| Nc1ncnc2c1c(-c1ccc(Cl)c(F)c1)cn2[C@@H]1O[C@H](CO)C[C@H]1O [FH10683, 4-amino-5-(3-fluoro-4-chlorophenyl)-N7-(3′-deoxy-β-D-ribofuranosyl)-pyrrolo[2,3-d]pyrimidine] | 18.6 | 0.07 | 206 |  |  |  |  |  |  |  |  |
| CSc1ncnc2c1c(Br)cn2[C@@H]1O[C@H](CO)C[C@H]1O [FH8510, 4-thiomethyl-5-bromo-N7-(3′-deoxy-β-D-ribofuranosyl)-pyrrolo[2,3-d]pyrimidine] |  |  |  | 1.68 | 4.34 | 0.29 | 35.8 |  |  |  |  |
| Nc1ncnc2c1c(SC(F)(F)F)cn2[C@@H]1O[C@H](CO)C[C@H]1O [FH9605, 4-amino-5-trifluoromethylthio-N7-(3′-deoxy-β-D-ribofuranosyl)-pyrrolo[2,3-d]pyrimidine] |  |  |  | 27.2 | 21 | 18.6 | 26 |  |  |  |  |
| O=c1[nH]cnc2c1c(Br)cn2[C@@H]1O[C@H](CO)C[C@H]1O [FH8500, 4-oxo-5-bromo-N7-(3′-deoxy-β-D-ribfuranosyl)-pyrrolo[2,3-d]pyrimidine] |  |  |  | 8.09 | 2.26 | > 64 | > 64 |  |  |  |  |
| Nc1ncnc2c1cc(Br)n2[C@@H]1O[C@H](CO)C[C@H]1O [FH10622, 4-amino-6-bromo-N7-(3′-deoxy-β-D-ribfuranosyl)-pyrrolo[2,3-d]pyrimidine] |  |  |  | 4.97 | 1.02 | > 64 | > 64 |  |  |  |  |
| Nc1ncnc2c1c(-c1ccccn1)cn2[C@@H]1O[C@H](CO)C[C@H]1O [FH8502, 4-amino-5-(pyrid-2-yl)-N7-(3′-deoxy-β-D-ribfuranosyl)-pyrrolo[2,3-d]pyrimidine] |  |  |  | 7.6 | 37.3 | 33.7 | 40.8 |  |  |  |  |
| OC[C@@H]1C[C@@H](O)[C@H](n2cc(Br)c3c(Cl)ccnc32)O1 [FH9540, 3-bromo-4-chloro-N1-(3′-deoxy-β-D-ribofuranosyl)-pyrrolo[2,3-b]pyridine] |  |  |  | 14.8 | 28.9 | 27.2 |  | 15 |  |  |  |
| COc1ccc(-c2cn([C@@H]3O[C@H](CO)C[C@H]3O)c3ncnc(N)c23)cc1Cl [FH10645] |  |  |  | 7.13 | 2.51 | > 64 | 3.3 |  |  |  |  |
| Nc1ncnc2c1c(Br)cn2[C@@H]1OC(CO)(CO)C[C@H]1O [FH9561, 4-amino-5-bromo-N7-(3′-deoxy-4′-hydroxymethyl-β-D-ribofuranosyl)-pyrrolo[2,3-d]pyrimidine] |  |  |  | 26.8 | 5.6 | > 64 | > 64 |  |  |  |  |
| CC(C)c1ccc(-c2cn([C@@H]3O[C@H](CO)C[C@H]3O)c3ncnc(N)c23)cc1 [FH9574, 4-amino-5-(4-isopropylphenyl)-N7-(3′-deoxy-β-D-ribofuranosyl)-pyrrolo[2,3-d]pyrimidine] |  |  |  | > 64 | 55.9 | 24.9 | 8.5 |  |  |  |  |
| Nc1ncnc2c1c(Cl)cn2[C@@H]1O[C@H](CO)[C@@H](O)[C@H]1O [FH3169] |  |  |  |  |  | 33.4 |  |  | 1.33 | 0.12 | 0.52 |
| 4-amino-5-bromo-N7-(2′,3′-anhydro-2′,3′-dideoxy-β-D-ribofuranosyl)-pyrrolo[2,3-d]pyrimidine [FH10632] |  |  |  | > 64 | 59.9 | 45.6 | > 64 |  |  |  |  |
| Nc1ncnc2c1c(-c1cccc(C(F)(F)F)c1)cn2[C@@H]1O[C@H](CO)C[C@H]1O [FH10640, 4-amino-5-(3-trifluoromethylphenyl)-N7-(3′-deoxy-β-D-ribofuranosyl)-pyrrolo[2,3-d]pyrimidine] |  |  |  | 8.6 | 1.77 | 49.6 | 11.2 |  |  |  |  |
| Nc1ncnc2c1c(-c1ccccc1)cn2[C@@H]1O[C@H](CO)C[C@H]1O [FH8480, 4-amino-5-phenyl-N7-(3′-deoxy-β-D-ribofuranosyl)-pyrrolo[2,3-d]pyrimidine] |  |  |  | 7.9 | 1.2 | 61.8 | 2.57 |  |  |  |  |
| CNc1ncnc2c1c(Br)cn2[C@@H]1O[C@H](CO)C[C@H]1O [FH8516, 4-methylamino-5-bromo-N7-(3′-deoxy-β-D-ribofuranosyl)-pyrrolo[2,3-d]pyrimidine] |  |  |  | 6.21 | 8.25 | > 64 | > 64 |  |  |  |  |

| Compound | EC50 [1] [µM] | EC50 [2, 4] [µM] | melting point [°C] | EC50 (T. brucei Squib 427; [5]) [µM] | EC50 [3, 6] [µM] | EC50 (MRC-5 fibroblasts) [µM] | EC50 [2, 7] [µM] | EC50 [2] [µM] | EC50 (T. brucei Squib 427; [8]) [µM] | EC50 [3, 9] [µM] | EC50 [2, 10] [µM] |
| --- | --- | --- | --- | --- | --- | --- | --- | --- | --- | --- | --- |
| OC[C@@H]1C[C@@H](O)[C@H](n2ccc3c(Cl)ccnc32)O1 [FH9541, 4-chloro-N1-(3′-deoxy-β-D-ribofuranosyl)-pyrrolo[2,3-b]pyridine] |  |  |  | 31.2 | 7.97 | > 64 |  | > 64 |  |  |  |
| CCSC[C@@H]1C[C@@H](O)[C@H](n2cc(Br)c3c(N)ncnc32)O1 [FH9590, 4-amino-5-bromo-N7-(3′-deoxy-5′-thio-ethyl-β-D-ribofuranosyl)-pyrrolo[2,3-d]pyrimidine] |  |  |  | 32.9 | 10.6 | 25.8 | 35.7 |  |  |  |  |
| COc1ncnc2c1c(Br)cn2[C@@H]1O[C@H](CO)C[C@H]1O [FH8497, 4-methoxy-5-bromo-N7-(3′-deoxy-β-D-ribofuranosyl)-pyrrolo[2,3-d]pyrimidine] |  |  |  | 2.62 | 3.7 | 2.7 | > 64 |  |  |  |  |
| Nc1ccnc2c1ccn2[C@@H]1O[C@H](CO)C[C@H]1O [FH9550, 4-amino-N1-(3′-deoxy-β-D-ribofuranosyl)-pyrrolo[2,3-b]pyridine] |  |  |  | > 64 | 30.8 | > 64 |  | > 64 |  |  |  |
| Cc1ccc(-c2cn([C@@H]3O[C@H](CO)C[C@H]3O)c3ncnc(N)c23)cc1C [FH10653, 4-amino-5-(3,4-dimethylphenyl)-N7-(3′-deoxy-β-D-ribofuranosyl)-pyrrolo[2,3-d]pyrimidine] |  |  |  | 8.81 | 2.17 | 22.3 | 1.37 |  |  |  |  |
| Nc1ncnc2c1ccn2[C@@H]1O[C@H](COS(N)(=O)=O)C[C@H]1O [FH9608, 4-amino-N7-(3′-deoxy-5′-O-sulfamoyl-β-D-ribofuranosyl)-pyrrolo[2,3-d]pyrimidine] |  |  |  | 4.6 | 0.87 | 5.09 | 9.91 |  |  |  |  |
| COC[C@@H]1C[C@@H](O)[C@H](n2cc(Br)c3c(N)ncnc32)O1 [FH10626, 4-amino-5-bromo-N7-(3′-deoxy-5′-O-methyl-β-D-ribofuranosyl)-pyrrolo[2,3-d]pyrimidine] |  |  |  | 32 | 18.7 | 22.7 | 50.4 |  |  |  |  |
| Nc1ncnc2c1c(-c1ccc3ccccc3n1)cn2[C@@H]1O[C@H](CO)[C@@H](O)[C@H]1O [MS1017] |  |  |  |  |  | > 64 |  |  | 6.45 | 3.72 | 34.1 |
| Nc1ccnc2c1c(Br)cn2[C@@H]1O[C@H](CO)C[C@H]1O [FH9549, 3-bromo-4-amino-N1-(3′-deoxy-β-D-ribofuranosyl)-pyrrolo[2,3-b]pyridine] |  |  |  | 35.2 | > 64 | > 64 |  | > 64 |  |  |  |
| Nc1ncnc2c1c(-c1ccc(F)cc1)cn2[C@@H]1O[C@H](CO)C[C@H]1O [FH10680, 4-amino-5-(4-fluorophenyl)-N7-(3′-deoxy-β-D-ribofuranosyl)-pyrrolo[2,3-d]pyrimidine] | > 64 | 0.64 | 186 to 187 |  |  |  |  |  |  |  |  |
| C[C@@H]1C[C@@H](O)[C@H](n2cc(Br)c3c(N)ncnc32)O1 [FH8492, 4-amino-5-bromo-N7-(3′-5′-dideoxy-β-D-ribofuranosyl)-pyrrolo[2,3-d]pyrimidine] |  |  |  | 33.5 | 20.1 | 10.2 | 12 |  |  |  |  |
| Nc1ncnc2c1c(Br)cn2[C@H]1CC[C@@H](CO)O1 [FH10638, 4-amino-5-bromo-N7-(2′,3′-dideoxy-β-D-ribofuranosyl)-pyrrolo[2,3-d]pyrimidine] |  |  |  | 57.9 | 24.4 | 16.4 | 43.3 |  |  |  |  |
| Nc1ncnc2c1c(-c1ccc(F)c(Cl)c1)cn2[C@@H]1O[C@H](CO)C[C@H]1O [FH10681, 4-amino-5-(3-chloro-4-fluorophenyl)-N7-(3′-deoxy-β-D-ribofuranosyl)-pyrrolo[2,3-d]pyrimidine] | 45.5 | 0.3 | 178 |  |  |  |  |  |  |  |  |
| CO[C@@H]1C[C@@H](CO)O[C@H]1n1cc(Br)c2c(N)ncnc21 [FH9616, 4-amino-5-bromo-N7-(2′-O-methyl-3′-deoxy-β-D-ribofuranosyl)-pyrrolo[2,3-d]pyrimidine] |  |  |  | 32.5 | 25.4 | > 64 | > 64 |  |  |  |  |
| Cc1cccc(-c2cn([C@@H]3O[C@H](CO)C[C@H]3O)c3ncnc(N)c23)c1 [FH10639, 4-amino-5-(3-methylphenyl)-N7-(3′-deoxy-β-D-ribofuranosyl)-pyrrolo[2,3-d]pyrimidine] |  |  |  | 30.5 | 11.2 | > 64 | 5.15 |  |  |  |  |
